Key:
Assay in all cases: Kinobeads competition binding, HeLa Placenta lysate mix
Settings in all cases: 10 μM free compound
Wee1 = Wee1 (Homo sapiens, UniProt P30291); set-up: kinases from mixed HeLa placenta lysates; endogenous in cells; host or cells: mixed lysate of HeLa cells and placenta tissue
Description: (§1) To one aliquot of cell lysate 10 μM of the free compound (FIG. 3, CZC31326) was added and allowed to bind to proteins in the lysate. Then the affinity matrix with the immobilized compound was added to capture proteins that were not interacting with the previously added free compound. Beads were separated from the lysate and bead bound proteins were eluted in SDS sample buffer and subsequently separated by SDS-Polyacrylamide gel electrophoresis (FIG. 10). Suitable gel bands were cut out and subjected to in-gel proteolytic digestion with trypsin. The second lysate aliquot was processed identically, however no free compound was added (DMSO solvent control). Peptides originating from samples 1 and 2 were labeled with iTRAQ reagents (iTRAQ 114 and iTRAQ 117) and the combined samples were analyzed with a nano-flow liquid chromatography system coupled online to a tandem mass spectrometer (LC-MS/MS) experiment followed by iTRAQ reporter ion quantification in the MS/MS spectra as described in Example 2.

MLK4 = MLK4 (Homo sapiens, UniProt Q5TCX8); set-up: capturing and identification of kinases from mixed HeLa placenta lysates; endogenous in cells; host or cells: HeLa cells mixed with placenta tissue lysate
Description: as §1

MST1 = biological target: T1, MST1 (Homo sapiens, UniProt Q13043); set-up: capturing and identification of kinases from mixed HeLa placenta lysates; endogenous in cells; host or cells: HeLa cells mixed with placenta tissue lysate
T1 sequence (Q13043 1-487): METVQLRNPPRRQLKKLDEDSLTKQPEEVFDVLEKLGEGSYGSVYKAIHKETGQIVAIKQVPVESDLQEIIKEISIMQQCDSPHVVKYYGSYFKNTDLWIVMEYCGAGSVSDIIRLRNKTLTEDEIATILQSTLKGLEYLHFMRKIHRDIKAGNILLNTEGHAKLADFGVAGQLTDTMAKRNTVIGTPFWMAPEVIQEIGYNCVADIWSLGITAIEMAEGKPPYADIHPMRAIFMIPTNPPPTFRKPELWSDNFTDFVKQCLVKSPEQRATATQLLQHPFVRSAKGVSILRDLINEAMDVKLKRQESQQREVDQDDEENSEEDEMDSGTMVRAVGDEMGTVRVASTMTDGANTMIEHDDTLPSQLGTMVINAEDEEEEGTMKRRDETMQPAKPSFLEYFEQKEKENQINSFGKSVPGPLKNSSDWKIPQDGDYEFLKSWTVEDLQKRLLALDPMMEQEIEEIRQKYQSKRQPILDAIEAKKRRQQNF
Description: as §1

PHKg2 = biological target: T2, PHKg2 (Homo sapiens, UniProt P15735); set-up: capturing and identification of kinases from mixed HeLa placenta lysates; endogenous in cells; host or cells: HeLa cells mixed with placenta tissue lysate
T2 sequence (P15735 1-406): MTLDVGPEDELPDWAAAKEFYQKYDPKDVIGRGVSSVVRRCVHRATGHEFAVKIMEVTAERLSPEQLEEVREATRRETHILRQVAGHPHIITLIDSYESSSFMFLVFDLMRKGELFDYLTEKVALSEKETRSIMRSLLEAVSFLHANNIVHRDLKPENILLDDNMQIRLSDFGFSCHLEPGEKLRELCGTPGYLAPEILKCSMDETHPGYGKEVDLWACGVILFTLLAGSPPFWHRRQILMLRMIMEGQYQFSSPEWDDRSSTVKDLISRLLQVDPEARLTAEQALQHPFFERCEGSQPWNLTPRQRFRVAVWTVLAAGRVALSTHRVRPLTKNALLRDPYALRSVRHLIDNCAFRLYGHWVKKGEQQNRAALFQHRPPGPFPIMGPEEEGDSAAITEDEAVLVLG
Description: as §1

PKCa = PKCa (Homo sapiens, UniProt P17252); set-up: capturing and identification of kinases from mixed HeLa placenta lysates; endogenous in cells; host or cells: HeLa cells mixed with placenta tissue lysate
Description: as §1

PKN2 = PKN2 (Homo sapiens, UniProt Q16513); set-up: capturing and identification of kinases from mixed HeLa placenta lysates; endogenous in cells; host or cells: HeLa cells mixed with placenta tissue lysate
PKN2, sequence (Q16513 whole entry): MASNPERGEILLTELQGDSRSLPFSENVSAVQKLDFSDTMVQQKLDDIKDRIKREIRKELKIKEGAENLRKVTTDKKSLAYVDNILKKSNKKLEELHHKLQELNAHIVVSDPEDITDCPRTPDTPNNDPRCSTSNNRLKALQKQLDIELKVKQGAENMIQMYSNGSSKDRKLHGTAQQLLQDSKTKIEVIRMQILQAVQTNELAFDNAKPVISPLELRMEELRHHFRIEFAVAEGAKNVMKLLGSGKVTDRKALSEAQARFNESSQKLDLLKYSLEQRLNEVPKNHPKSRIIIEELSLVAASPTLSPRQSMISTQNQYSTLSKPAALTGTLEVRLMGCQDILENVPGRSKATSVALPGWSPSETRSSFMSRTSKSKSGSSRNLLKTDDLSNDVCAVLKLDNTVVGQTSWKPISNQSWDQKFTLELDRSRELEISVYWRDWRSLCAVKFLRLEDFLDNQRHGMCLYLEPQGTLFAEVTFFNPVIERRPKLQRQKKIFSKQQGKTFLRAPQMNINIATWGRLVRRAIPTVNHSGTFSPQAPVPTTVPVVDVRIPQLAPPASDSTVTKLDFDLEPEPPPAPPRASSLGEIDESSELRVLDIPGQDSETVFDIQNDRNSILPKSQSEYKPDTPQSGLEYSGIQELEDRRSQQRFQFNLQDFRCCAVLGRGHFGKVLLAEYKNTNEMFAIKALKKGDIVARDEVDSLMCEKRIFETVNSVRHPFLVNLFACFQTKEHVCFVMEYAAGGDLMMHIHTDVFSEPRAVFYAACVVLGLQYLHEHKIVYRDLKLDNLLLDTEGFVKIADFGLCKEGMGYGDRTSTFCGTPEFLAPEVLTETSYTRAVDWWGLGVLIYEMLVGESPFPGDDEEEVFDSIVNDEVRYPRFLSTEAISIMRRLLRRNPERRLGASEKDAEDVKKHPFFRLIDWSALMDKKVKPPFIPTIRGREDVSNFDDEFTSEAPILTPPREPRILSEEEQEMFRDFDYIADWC
Description: as §1

PLK1 = PLK1 (Homo sapiens, UniProt P53350); set-up: capturing and identification of kinases from mixed HeLa placenta lysates; endogenous in cells; host or cells: HeLa cells mixed with placenta tissue lysate
PLK1, sequence (P53350 whole entry): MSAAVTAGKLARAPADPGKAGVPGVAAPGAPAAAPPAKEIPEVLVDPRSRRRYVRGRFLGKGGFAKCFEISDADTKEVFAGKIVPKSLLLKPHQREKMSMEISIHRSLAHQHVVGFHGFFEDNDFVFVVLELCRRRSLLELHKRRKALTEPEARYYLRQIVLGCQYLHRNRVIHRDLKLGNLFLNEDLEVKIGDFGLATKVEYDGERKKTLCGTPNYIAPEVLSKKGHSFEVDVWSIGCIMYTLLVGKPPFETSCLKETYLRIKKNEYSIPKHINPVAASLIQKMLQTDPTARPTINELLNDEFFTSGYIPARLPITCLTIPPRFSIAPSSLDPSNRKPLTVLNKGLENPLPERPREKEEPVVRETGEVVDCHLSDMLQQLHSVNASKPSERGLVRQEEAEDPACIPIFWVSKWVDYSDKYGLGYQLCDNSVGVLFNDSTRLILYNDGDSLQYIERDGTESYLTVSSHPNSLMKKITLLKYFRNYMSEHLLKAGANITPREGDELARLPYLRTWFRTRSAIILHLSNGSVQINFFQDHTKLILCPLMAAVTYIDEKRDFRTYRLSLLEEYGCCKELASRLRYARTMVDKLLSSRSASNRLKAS
Description: as §1

PYK2 = PYK2 (Homo sapiens, UniProt Q14289); set-up: capturing and identification of kinases from mixed HeLa placenta lysates; endogenous in cells; host or cells: HeLa cells mixed with placenta tissue lysate
PYK2, sequence (Q14289 whole entry): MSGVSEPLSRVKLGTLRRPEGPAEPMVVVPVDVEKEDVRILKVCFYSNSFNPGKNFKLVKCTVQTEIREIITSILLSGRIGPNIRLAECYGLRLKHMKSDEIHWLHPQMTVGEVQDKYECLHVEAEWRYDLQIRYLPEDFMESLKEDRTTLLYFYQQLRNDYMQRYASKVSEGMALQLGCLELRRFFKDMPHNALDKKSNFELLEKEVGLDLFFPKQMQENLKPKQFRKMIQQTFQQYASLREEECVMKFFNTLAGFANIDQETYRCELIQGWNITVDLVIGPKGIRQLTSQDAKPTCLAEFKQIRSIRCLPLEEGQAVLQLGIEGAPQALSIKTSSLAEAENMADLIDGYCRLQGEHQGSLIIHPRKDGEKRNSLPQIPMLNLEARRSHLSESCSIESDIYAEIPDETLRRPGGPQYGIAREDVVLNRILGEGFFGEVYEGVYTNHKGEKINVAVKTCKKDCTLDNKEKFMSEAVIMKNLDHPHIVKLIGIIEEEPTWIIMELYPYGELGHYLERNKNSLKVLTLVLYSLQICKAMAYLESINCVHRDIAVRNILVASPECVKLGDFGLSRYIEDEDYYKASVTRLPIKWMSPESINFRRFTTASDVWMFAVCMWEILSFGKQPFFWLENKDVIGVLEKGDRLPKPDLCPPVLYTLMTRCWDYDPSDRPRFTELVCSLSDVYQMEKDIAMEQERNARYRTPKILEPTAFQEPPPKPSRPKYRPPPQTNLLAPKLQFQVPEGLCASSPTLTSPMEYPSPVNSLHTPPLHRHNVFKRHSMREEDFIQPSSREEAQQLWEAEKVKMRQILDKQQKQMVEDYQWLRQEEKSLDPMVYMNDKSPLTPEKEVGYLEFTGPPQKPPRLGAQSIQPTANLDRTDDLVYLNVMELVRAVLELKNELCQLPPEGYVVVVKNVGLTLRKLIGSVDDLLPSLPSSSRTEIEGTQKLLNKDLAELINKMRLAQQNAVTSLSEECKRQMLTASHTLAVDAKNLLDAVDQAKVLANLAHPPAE
Description: as §1

RSK2 = RSK2 (Homo sapiens, UniProt P51812); set-up: capturing and identification of kinases from mixed HeLa placenta lysates; endogenous in cells; host or cells: HeLa cells mixed with placenta tissue lysate
RSK2, sequence (P51812 whole entry): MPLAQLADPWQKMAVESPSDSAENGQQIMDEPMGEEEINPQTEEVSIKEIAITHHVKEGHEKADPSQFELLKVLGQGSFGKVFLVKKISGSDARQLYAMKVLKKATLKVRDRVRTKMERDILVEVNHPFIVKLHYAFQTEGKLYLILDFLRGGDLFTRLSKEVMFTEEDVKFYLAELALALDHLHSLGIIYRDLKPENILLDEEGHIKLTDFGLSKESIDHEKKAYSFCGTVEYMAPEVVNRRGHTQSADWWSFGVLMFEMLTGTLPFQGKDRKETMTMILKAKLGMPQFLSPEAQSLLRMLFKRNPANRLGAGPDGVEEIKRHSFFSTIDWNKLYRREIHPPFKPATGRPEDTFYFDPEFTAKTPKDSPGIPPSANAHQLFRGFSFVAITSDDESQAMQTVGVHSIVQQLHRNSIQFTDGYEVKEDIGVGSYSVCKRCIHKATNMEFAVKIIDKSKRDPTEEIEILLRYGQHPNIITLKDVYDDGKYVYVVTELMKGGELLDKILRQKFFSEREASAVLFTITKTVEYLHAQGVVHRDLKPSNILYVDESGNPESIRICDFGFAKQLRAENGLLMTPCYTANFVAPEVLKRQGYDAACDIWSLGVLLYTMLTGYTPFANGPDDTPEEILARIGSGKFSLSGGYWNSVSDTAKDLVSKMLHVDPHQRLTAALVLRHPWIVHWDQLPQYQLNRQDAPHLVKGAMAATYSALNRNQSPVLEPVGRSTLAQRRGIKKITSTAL
Description: as §1

SLK = SLK (Homo sapiens, UniProt Q9H2G2); set-up: capturing and identification of kinases from mixed HeLa placenta lysates; endogenous in cells; host or cells: HeLa cells mixed with placenta tissue lysate
Description: as §1

SYK = SYK (Homo sapiens, UniProt P43405); set-up: capturing and identification of kinases from mixed HeLa placenta lysates; endogenous in cells; host or cells: HeLa cells mixed with placenta tissue lysate
Description: as §1

Wee1, sequence (P30291 whole entry): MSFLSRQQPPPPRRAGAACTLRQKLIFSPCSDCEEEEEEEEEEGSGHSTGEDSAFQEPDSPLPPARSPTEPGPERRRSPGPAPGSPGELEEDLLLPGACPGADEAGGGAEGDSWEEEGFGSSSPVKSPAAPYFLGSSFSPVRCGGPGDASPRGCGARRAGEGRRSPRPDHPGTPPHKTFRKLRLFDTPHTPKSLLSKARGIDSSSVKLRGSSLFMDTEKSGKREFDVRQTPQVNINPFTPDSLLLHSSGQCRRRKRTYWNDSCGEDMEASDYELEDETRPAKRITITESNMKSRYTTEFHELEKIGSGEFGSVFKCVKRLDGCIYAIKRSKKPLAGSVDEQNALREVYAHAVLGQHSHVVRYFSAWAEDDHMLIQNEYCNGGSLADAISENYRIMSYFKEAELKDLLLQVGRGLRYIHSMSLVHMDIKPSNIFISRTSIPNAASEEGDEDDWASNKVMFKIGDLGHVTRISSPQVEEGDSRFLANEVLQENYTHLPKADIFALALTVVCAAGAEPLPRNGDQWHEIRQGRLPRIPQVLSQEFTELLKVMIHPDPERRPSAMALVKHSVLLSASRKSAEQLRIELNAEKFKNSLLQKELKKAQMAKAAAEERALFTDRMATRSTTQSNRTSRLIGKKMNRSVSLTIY

inhibition at 10 µM (Wee1): 95.2%
inhibition at 10 µM (MLK4): 88.9%
Competition % (MST1): 94.6%
inhibition at 10 µM (PHKg2): 89.9%
inhibition at 10 µM (PKCa): 94.9%
inhibition at 10 µM (PKN2): 94%
inhibition at 10 µM (PLK1): 94.7%
inhibition at 10 µM (PYK2): 92.7%
inhibition at 10 µM (RSK2): 96%
inhibition at 10 µM (SLK): 93.2%
Competition % (SYK): 93.4%
Compound: CS(=O)(=O)Nc1ccccc1Nc1nc(Nc2cccc(OCCN)c2)ncc1Cl [CZC31326, N-(2-(2-(3-(2-aminoethoxy)phenylamino)-5-chloropyrimidin-4-ylamino)phenyl)methanesulfonamide]
